Experimental data as given in US20040259942A1, “Modulation of stat activity” (priority 2001, published 2004).
“Also recorded” adds a separate entry of the source.

Columns and labels:
[1] = tested on: autocrine factor release from BR293 cells; experiment: Autocrine factor release: CM from pre-treated serum-stimulated cells tested for STAT3 phosphorylation; format: cell-based, human; details: 100 μM (FIG. 18d)
Procedure: OdDHL blocks the autocrine release of mitogens from BC cells (a) Equal numbers of BR293 cells were cultured in MEM alone, serum-free MEM conditioned by serum-stimulated BR293 cells for 2 hours, or the same supplemented with 5% FCS, as indicated. After 24 hours [^3H]-thymidine was added to the medium. After a further 18 hours, cells were harvested and analysed for incorporation of ^3H. Error bars denote SD (n=4). (b) BR293 cells were serum-starved (lane 1) or starved and stimulated with 10% FCS for 2 hours directly (lane 2) or after pretreatment with α-amanitin (1004/ml) for 2.5 hours (lane 3) or actinomycin D ([…]) for 10 min (lane 4). […] (c) BR293 cells were serum-starved (lane 1) or starved and stimulated with 10% FCS alone for 2 hours (lane 2), with serum-free CM alone for 15 min (lane 5) or in the presence of increasing 100 μM AG490 (lanes 3 and 6) or 100 μM OdDHL (lanes 4 and 7). Cell lysates were prepared and analysed by Western blotting as described in the legend to FIG. 1a. (d) BR293 cells were stimulated with 10% FCS in the presence of 100 μM OHHL (lane 1) or OdDHL (lane 2). After 2 hours the cells were washed and incubated for a further 2 hours in serum-free MEM. […] Lysates were prepared from all the cells and analysed by Western blotting as described in the legend to FIG. 1a.

[2] = tested on: HEK293 cells; experiment: Cell proliferation assay (cell counting); format: cell-based, human; details: cells with constitutive STAT3 activity; 48 hours
Procedure: (§1) Equal numbers of BR293, MCF-10F, MCF-7, MDA-MB-468, HKEK293 and COS1 cells were seeded in the appropriate growth medium into 10 cm dishes. Cells were allowed to grow in the presence of various concentrations of OdDHL or OHHL for 24 or 48 hours. For the 48-hour time points, fresh medium containing the appropriate inhibitor was applied to the cells after 24 hours. Controls were allowed to grow for 48 hours in the absence of inhibitor. Thereafter, all the cells were washed twice with ice cold PBS, harvested and counted under a phase-contrast microscope. Values are expressed as averages ±S.D. (n=3).

[3] = tested on: MCF-7 cells; experiment: Cell proliferation assay (cell counting); format: cell-based, human; details: over a 48-hour period
Procedure: as §1

[4] = tested on: MCF-10F cells; experiment: Cell proliferation assay (cell counting); format: cell-based, human; details: non-tumorigenic breast epithelial cells; 48 hours
Procedure: Breast cancer cell lines (BR293, MCF-7 and MDA-MB-468) were maintained in Minimum Essential Medium Eagle (MEM, Sigma) supplemented with 10% foetal calf serum (FCS), 1% MEM non-essential amino acids, 1% glutamine and 1% penicillin-streptomycin at 37° C. under 5% CO2. […] These cell lines are well-known, and widely available to persons in the field. In particular, the following lines are deposited with the American Type Culture Collection (ATTC) with the following identifying codes:
as §1

[5] = molecular target: T1, JAK2 (Homo sapiens, UniProt O60674); experiment: Serum-induced JAK2 tyrosine phosphorylation (immunoblot); format: cell-based; details: preliminary data, unpublished
T1 construct: endogenous in cells; host or cells: BR293
Procedure: For immunoprecipitation and immunoblotting experiments, cells were grown to confluence in 10 cm dishes and maintained in full medium or starved in serum-free medium overnight before the application of appropriate stimuli. Lysates were prepared in TBSN buffer (50 mM Tris-HCl pH7.5, 150 mM NaCl, 1 mM EDTA, 1% NP-40) supplemented with protease inhibitors (1 mM Na3 VO4, 10 mM Na4P2O7, 10 mM NaF, 5 mM EGTA, 10 mM Benzamidine, 0.2 mM PMSF and 1 μg/ml each of leupeptin, aprotinin, pepstatin). Lysates were cleared by centrifugation at 16,000×g for 10 minutes and used directly for immunoprecipitations or stored at −20° C. for further use.
Equal amounts of lysates were incubated with the appropriate antibody for 2 hours at 4° C.
Immune complexes were then allowed to bind to protein A-Sepharose beads for 1 hour at 4° C. and collected by centrifugation. Immunoprecipitates were washed three times in 100 mM Tris-HC1 pH 7.5, […], 1 mM EDTA, 0.1 mM PMSF, 0.5% NP-40. Thereafter, samples were taken up in sodium dodecyl sulphate (SDS) loading buffer and boiled for 5 min.
Samples were separated by electrophoresis through 6% polyacrylamide-SDS gels. Proteins were then transferred to polyvinylidene difluoride (PVDF) membranes with a semi-dry electroblotting apparatus. […]

[6] = tested on: p46/p54 JNK/SAPK; experiment: JNK/SAPK phosphorylation in anisomycin-treated cells (Western blotting); format: cell-based, human; details: BR293 cells treated with anisomycin
Procedure: ERKs are unaffected by OdDHL (a) BR293 cells were serum-starved (lane 1) or starved and stimulated with TPA for 30 min alone (lane 2) or in the presence of increasing concentrations of OdDHL (lanes 3-6) or 100 μM OHHL (lane 7). Cell lysates were prepared and analysed by Western blotting for ERK phosphorylation with an antibody specific for phospho-ERK½ (upper panel) and for ERK content with an antibody against ERKs (lower panel). (b) BR293 cells were serum-starved (lane 1) or starved and stimulated with Anisomycin for 30 min alone (lane 2) or in the presence of increasing concentrations of OdDHL (lanes 3-6) or 100 μM OHHL (lane 7). Cell lysates were prepared and analysed by Western blotting for JNK/SAPK phosphorylation with an antibody specific for phospho-JNKs (upper panel) and for SAPK/JNK content with an antibody against JNKs (lower panel). (c) BR293 cells were treated as described in (b) and lysates were analysed by Western blotting for p38^MAPK phosphorylation with an antibody specific for phospho-p38 (upper panel) and for p38 content with an antibody against p38 (lower panel).

[7] = molecular target: T2, ErbB1 (Homo sapiens, UniProt P00533); experiment: Tyrosine phosphorylation of ErbB1 (EGF-R): immunoprecipitation and anti-phosphotyrosine immunoblot; format: cell-based; details: MDA-MB-468 cells
T2 construct: Lysates were prepared, from which ErbB1 proteins were collected as immune complexes; endogenous in cells; host or cells: MDA-MB-468
T2 sequence (P00533 25-1210): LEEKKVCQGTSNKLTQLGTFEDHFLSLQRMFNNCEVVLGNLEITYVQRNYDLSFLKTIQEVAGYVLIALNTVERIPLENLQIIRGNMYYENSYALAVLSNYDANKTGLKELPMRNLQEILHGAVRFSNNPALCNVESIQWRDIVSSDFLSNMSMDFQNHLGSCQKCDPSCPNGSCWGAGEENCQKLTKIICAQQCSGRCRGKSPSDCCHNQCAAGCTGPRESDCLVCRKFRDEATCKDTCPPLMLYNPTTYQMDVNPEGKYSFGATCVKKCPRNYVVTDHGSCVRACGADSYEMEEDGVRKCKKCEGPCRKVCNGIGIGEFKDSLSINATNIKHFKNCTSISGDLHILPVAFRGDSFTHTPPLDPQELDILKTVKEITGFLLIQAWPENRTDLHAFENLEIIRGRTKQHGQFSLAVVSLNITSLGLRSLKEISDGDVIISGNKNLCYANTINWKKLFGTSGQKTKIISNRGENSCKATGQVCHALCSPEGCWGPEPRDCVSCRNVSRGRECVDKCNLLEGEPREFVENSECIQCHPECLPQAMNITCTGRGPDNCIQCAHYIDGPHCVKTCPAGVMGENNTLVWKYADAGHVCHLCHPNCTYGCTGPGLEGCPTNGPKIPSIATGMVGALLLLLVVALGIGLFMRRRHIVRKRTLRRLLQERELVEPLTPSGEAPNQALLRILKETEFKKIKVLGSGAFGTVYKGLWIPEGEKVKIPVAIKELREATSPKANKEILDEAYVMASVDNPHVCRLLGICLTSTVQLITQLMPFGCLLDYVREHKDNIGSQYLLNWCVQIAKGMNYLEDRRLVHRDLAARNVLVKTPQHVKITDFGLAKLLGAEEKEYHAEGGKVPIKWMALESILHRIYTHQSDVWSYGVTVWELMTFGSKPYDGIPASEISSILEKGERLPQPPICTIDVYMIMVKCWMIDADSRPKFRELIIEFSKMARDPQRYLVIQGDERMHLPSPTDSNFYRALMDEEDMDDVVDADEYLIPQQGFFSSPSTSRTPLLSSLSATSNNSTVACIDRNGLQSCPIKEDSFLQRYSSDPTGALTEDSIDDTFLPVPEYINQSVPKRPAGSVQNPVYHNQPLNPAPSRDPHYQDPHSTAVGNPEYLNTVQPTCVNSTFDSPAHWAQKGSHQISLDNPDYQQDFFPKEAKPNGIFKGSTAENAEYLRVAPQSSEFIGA
Procedure: Immune complexes were then allowed to bind to protein A-Sepharose beads for 1 hour at 4° C. and collected by centrifugation. Immunoprecipitates were washed three times in 100 mM Tris-HC1 pH 7.5, 100 nM NaCl, 1 mM EDTA, 0.1 mM PMSF, 0.5% NP-40. Thereafter, samples were taken up in sodium dodecyl sulphate (SDS) loading buffer and boiled for 5 min.

T1 sequence (O60674 whole entry): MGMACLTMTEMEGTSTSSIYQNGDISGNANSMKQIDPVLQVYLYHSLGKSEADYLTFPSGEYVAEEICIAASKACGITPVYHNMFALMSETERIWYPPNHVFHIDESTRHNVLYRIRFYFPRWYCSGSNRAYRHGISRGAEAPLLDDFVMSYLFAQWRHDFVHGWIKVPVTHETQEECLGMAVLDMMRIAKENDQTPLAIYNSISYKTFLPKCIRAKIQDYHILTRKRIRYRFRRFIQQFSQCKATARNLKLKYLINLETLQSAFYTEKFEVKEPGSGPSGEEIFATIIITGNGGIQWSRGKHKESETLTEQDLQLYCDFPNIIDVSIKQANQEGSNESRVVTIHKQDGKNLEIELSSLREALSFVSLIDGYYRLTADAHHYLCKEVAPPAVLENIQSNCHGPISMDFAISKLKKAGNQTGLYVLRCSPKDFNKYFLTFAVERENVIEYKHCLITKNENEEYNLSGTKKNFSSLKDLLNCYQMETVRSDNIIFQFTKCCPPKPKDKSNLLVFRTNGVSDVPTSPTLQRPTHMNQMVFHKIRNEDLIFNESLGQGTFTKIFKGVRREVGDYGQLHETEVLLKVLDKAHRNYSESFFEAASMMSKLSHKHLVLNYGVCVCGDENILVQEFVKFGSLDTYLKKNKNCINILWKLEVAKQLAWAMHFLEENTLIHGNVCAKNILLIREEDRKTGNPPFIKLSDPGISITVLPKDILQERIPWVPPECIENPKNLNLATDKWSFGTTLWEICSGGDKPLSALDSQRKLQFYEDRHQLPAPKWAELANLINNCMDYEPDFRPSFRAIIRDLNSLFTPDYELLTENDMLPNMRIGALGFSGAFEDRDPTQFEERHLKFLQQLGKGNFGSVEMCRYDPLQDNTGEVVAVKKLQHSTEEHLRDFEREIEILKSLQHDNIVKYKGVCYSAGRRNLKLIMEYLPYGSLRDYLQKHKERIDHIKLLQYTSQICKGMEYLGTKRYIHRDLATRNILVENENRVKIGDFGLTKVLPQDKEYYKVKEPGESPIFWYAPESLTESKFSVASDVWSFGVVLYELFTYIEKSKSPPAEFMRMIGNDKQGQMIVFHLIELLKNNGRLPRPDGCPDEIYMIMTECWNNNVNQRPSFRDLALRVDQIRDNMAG

For `CCCCCCCCCC(=O)CC(=O)N[C@H]1CCOC1=O` [OdDHL, N-(3-oxo-dodecanoyl)-L-homoserine lactone], the “STAT3 phosphorylation induced by CM from serum-stimulated cells pre-treated with the compound” value [1] was “unable to stimulate STAT3 phosphorylation; also recorded: failed to induce STAT3 phosphorylation”, the “growth sensitivity to treatment” value [2] was “sensitive” and the inhibition of proliferation [3] was 70%-80%. For the same compound, the effect on proliferation [4] was “slight”, the “JAK2 phosphorylation in serum-stimulated cells” value [5] was “does not interfere with JAK2 phosphorylation” and the “p46/p54 JNK/SAPK phosphorylation” value [6] was “modest but reproducible inhibition”. For the same compound, the “receptor tyrosine phosphorylation in response to EGF stimulation” value ([7]; 100 μM and even at lower concentrations (101M as printed)) was “potentiated receptor tyrosine phosphorylation in response to EGF stimulation several fold” and the “tyrosine phosphorylation of the EGF-R in unstimulated cells” value ([7]; OdDHL alone at 100 μM) was “caused an increase in detectable tyrosine phosphorylation of the EGF-R”.
